Measured values: US10508109B2 (priority 2015, dated 2019)
Like-named read-outs stand apart in the source and are kept apart here.

How the values were obtained:
A549 = assay: Cell-based assay, anti-proliferative activity (Cell Counting Kit-8, 72 hours); conditions: Homo sapiens, read-out: IC50 (μM) A549
Method in brief: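 IC50 values come from growth read-outs taken after the cells' exposure to each candidate inhibitor. Cells had been plated in 96-well microtiter plates beforehand.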

CCD-18Co = assay: as above; conditions: Homo sapiens, read-out: IC50 (μM) CCD-18Co
Method in brief: (§1)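 IC50 values reflect cell growth measured by Cell Counting Kit-8 following 72 hours of inhibitor exposure across a twofold dilution range up to 100 micro-M.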

HCT-116 = assay: as above; conditions: Homo sapiens, read-out: IC50 (μM) HCT-116
Method in brief: as §1

HFL1 = assay: as above; conditions: Homo sapiens, read-out: IC50 (μM) HFL1
Method in brief: as §1

PC14 = assay: as above; conditions: Homo sapiens, read-out: IC50 (μM) PC14
Method in brief: as §1

SUV39H2 = SUV39H2 (Homo sapiens (Human), UniProt Q9H5I1); conditions: read-out: IC50 (μM) Suv 39H2 assay; enzyme assay
[1] = A549 cells, Cell Counting Kit-8, 72 hours
[2] = CCD-18Co cells, Cell Counting Kit-8, 72 hours
[3] = HCT-116 cells, Cell Counting Kit-8, 72 hours
[4] = HFL1 cells, Cell Counting Kit-8, 72 hours
[5] = PC-14, PC14 cells, Cell Counting Kit-8, 72 hours

SUV39H2, sequence (Q9H5I1 whole entry): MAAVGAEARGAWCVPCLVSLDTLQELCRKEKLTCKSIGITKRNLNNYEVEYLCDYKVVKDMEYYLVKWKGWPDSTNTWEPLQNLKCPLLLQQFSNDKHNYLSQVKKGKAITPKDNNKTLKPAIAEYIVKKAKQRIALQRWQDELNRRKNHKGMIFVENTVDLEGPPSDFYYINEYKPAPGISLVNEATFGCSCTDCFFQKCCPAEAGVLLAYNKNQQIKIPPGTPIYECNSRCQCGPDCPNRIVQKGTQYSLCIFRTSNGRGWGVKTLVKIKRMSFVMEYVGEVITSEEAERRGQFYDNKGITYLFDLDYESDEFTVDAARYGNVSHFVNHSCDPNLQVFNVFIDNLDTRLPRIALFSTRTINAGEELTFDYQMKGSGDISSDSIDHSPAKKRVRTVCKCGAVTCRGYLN

Compound	IC50 (A549; [1]) [µM]	IC50 (CCD-18Co; [2]) [µM]	IC50 (HCT-116; [3]) [µM]	IC50 (HFL1; [4]) [µM]	IC50 (PC14; [5]) [µM]	IC50 (SUV39H2) [µM]	IC50 (A549; A549, 72 h) [µM]	IC50 (CCD-18Co; CCD-18Co, 72 h) [µM]	IC50 (HCT-116; HCT-116, 72 h) [µM]	IC50 (HFL1; HFL1, 72 h) [µM]	IC50 (PC14; PC-14, 72 h) [µM]
COc1cc(OC)c(-c2cn3ccc(N4CCN(S(=O)(=O)C5CC5)CC4)nc3n2)cc1Cl [Example 146, 2-(5-chloro-2,4-dimethoxyphenyl)-7-[4-(cyclopropylsulfonyl)piperazin-1-yl]imidazo[1,2-a]pyrimidine]	0.49	4.2	0.69	1.4	0.24	0.0247					
COc1cc(OC)c(-c2cn3ccc(C4=CCN(CCN5CCCCC5)CC4)cc3n2)cc1Cl [Example 147, 2-(5-chloro-2,4-dimethoxyphenyl)-7-(1-(2-(piperidin-1-yl)ethyl)-1,2,3,6-tetrahydropyridin-4-yl)imidazo[1,2-a]pyridine]	7	6	7.3	8.7	5.9	0.0295					
COc1cc(OCCCN(C)C)c(-c2cn3ccc(N4CCC(NC(=O)OC(C)(C)C)CC4)cc3n2)cc1Cl [Example 148, tert-butyl (1-(2-{5-chloro-2-[3-(dimethylamino)propoxy]-4-methoxyphenyl}imidazo[1,2-a]pyridin-7-yl)piperidin-4-yl)carbamate]	1.8	0.78	1.3	0.53	1.4	0.0373					
COc1cc(OC)c(-c2cn3ccc(N4CCC(CNS(=O)(=O)C5CC5)CC4)cc3n2)cc1Cl [Example 149, N-((1-(2-(5-Chloro-2,4-dimethoxyphenyl)imidazo[1,2-a]pyridin-7-yl)piperidin-4-yl)methyl)cyclopropanesulfonamide]	2.5	4.8	2.3	1.9	2.4	0.00672					
COc1cc(OCCCN(C)C)c(-c2cn3ccc(N4CCC(N)CC4)cc3n2)cc1Cl [Example 150, 1-(2-{5-chloro-2-[3-(dimethylamino)propoxy]-4-methoxyphenyl}-imidazo[1,2-a]pyridin-7-yl)piperidin-4-amine]	2.3	2.4	2.1	0.86	2.2	0.035					
COc1cc(OC)c(-c2cn3ccc(N)cc3n2)cc1Cl [Example 151, 2-(5-chloro-2,4-dimethoxyphenyl)imidazo[1,2-a]pyridin-7-amine]	5.1	2.4	2.3	1.9	2.9	0.00827					
COC(=O)N1CCN(c2ccn3cc(-c4cc(Cl)c(OC)cc4OCCCN(C)C)nc3c2)CC1 [Example 152, methyl 4-(2-(5-chloro-2-(3-(dimethylamino)propoxy)-4-methoxyphenyl)-imidazo[1,2-a]pyridin-7-yl)piperazine-1-carboxylate]	6.4	5.3	7.1	1.9	2.7	0.0199					
COc1cc(OC)c(-c2cn3ccc(N4CCNCC4)nc3n2)cc1Cl [Example 153, 2-(5-chloro-2,4-dimethoxyphenyl)-7-(piperazin-1-yl)imidazo[1,2-a]-pyrimidine]	10	11	8.6	5.3	4.1	0.0526					
COc1cc(OCCCN(C)C)c(-c2cn3ccc(N4CCN(S(C)(=O)=O)CC4)cc3n2)cc1Cl [Example 155, 3-(4-chloro-5-methoxy-2-{7-[4-(methylsulfonyl)piperazin-1-yl]-imidazo[1,2-a]pyridin-2-yl}phenoxy)-N,N-dimethylpropan-1-amine]	7.5	7.5	5.8	5.5	3.8	0.0127					
COc1cc(OCCCN(C)C)c(-c2cn3ccc(N4CCN(C(=O)C(C)(C)C)CC4)cc3n2)cc1Cl [Example 156, 1-(4-(2-(5-chloro-2-(3-(dimethylamino)propoxy)-4-methoxyphenyl)imidazo[1,2-a]pyridine-7-yl)piperazin-1-yl)-2,2-dimethylpropan-1-one]	6.3	7.2	6.2	4.4	5.8	0.0344					
COc1cc(OC)c(-c2cn3ccc(NC(=O)CCNC(=O)OC(C)(C)C)cc3n2)cc1Cl [Example 157, tert-butyl (3-{[2-(5-chloro-2,4-dimethoxyphenyl)imidazo[1,2-a]pyridin-7-yl]amino}-3-oxopropyl)carbamate]	7.5	7.1	6.8	4.7	6.2	0.0628					
COc1cc(OC)c(-c2cn3ccc(N4CCN(CCC(=O)NCCN(C)C)CC4)cc3n2)cc1Cl [Example 158, 3-(4-(2-(5-chloro-2,4-dimethoxyphenyl)imidazo[1,2-a]pyridin-7-yl)piperazin-1-yl)-N-(2-(dimethylamino)ethyl)propanamide]	9.3	14	9.4	7.7	9.8	0.00353					
COC(=O)N1CCN(c2ccn3cc(-c4cc(Cl)c(OC)cc4OC)nc3n2)CC1 [Example 159, methyl 4-(2-(5-chloro-2,4-dimethoxyphenyl)imidazo[1,2-a]pyrimidin-7-yl)piperazine-1-carboxylate]	2.7	3.7	3.2	3.4	4.7	0.0157					
COc1cc(OCCCN(C)C)c(-c2cn3ccc(N4CCN(S(=O)(=O)C5CC5)CC4)cc3n2)cc1Cl [Example 160, 3-(4-Chloro-2-{7-[4-(cyclopropylsulfonyl)piperazin-1-yl]imidazo[1,2-a]pyridin-2-yl}-5-methoxyphenoxy)-N,N-dimethylpropan-1-amine]	1.4	2.9	1.2	1.5	1.9	0.0277					
COc1cc(OC)c(-c2cn3ccc(NC(=O)CNC(=O)OC(C)(C)C)cc3n2)cc1Cl [Example 161, tert-butyl (2-((2-(5-chloro-2,4-dimethoxyphenyl)imidazo[1,2-a]pyridin-7-yl)-amino)-2-oxoethyl)carbamate]	8.8	7.8	7	8.4	8.7	0.0379					
COc1cc(OCCCN(C)C)c(-c2cn3ccc(N4CCC(NC(=O)C(C)(C)C)CC4)cc3n2)cc1Cl [Example 162, N-(1-(2-(5-chloro-2-(3-(dimethylamino)propoxy)-4-methoxyphenyl)-imidazo[1,2-a]pyridin-7-yl)piperidin-4-yl)pivalamide]	2.8	5	3.3	2.1	2.1	0.0211					
COc1cc(OCCCN(C)C)c(-c2cn3ccc(N4CCC(NS(=O)(=O)C5CC5)CC4)cc3n2)cc1Cl [Example 163, N-(1-(2-(5-chloro-2-(3-(dimethylamino)propoxy)-4-methoxyphenyl)imidazo-[1,2-a]pyridin-7-yl)piperidin-4-yl)cyclopropanesulfonamide]	6.4	5.6	5.9	2.7	3.4	0.0206					
COc1cc(OCCCN(C)C)c(-c2cn3ccc(N4CCC(NS(C)(=O)=O)CC4)cc3n2)cc1Cl [Example 164, N-(1-(2-(5-chloro-2-(3-(dimethylamino)propoxy)-4-methoxyphenyl)-imidazo[1,2-a]pyridin-7-yl)piperidin-4-yl)methanesulfonamide]	10	7.2	9	8.6	8.8	0.0211					
CCCCCNC1CCN(c2ccn3cc(-c4cc(Cl)c(OC)cc4OCCCN(C)C)nc3c2)CC1 [Example 165, 1-(2-{5-chloro-2-[3-(dimethylamino)propoxy]-4-methoxyphenyl}imidazo-[1,2-a]pyridin-7-yl)-N-pentylpiperidin-4-amine]	2.2	2.1	1.7	1.7	2.2	0.0593					
COc1cc(OC)c(-c2cn3ccc(NC(=O)CN)cc3n2)cc1Cl [Example 166, 2-amino-N-(2-(5-chloro-2,4-dimethoxyphenyl)imidazo[1,2-a]pyridin-7-yl)-acetamide]						0.031	7.1	7.9	6.1	22	6.5
COc1cc(OC)c(-c2cn3ccc(N4CCN(CCCN(C)C)C4=O)cc3n2)cc1Cl [Example 167, 1-(2-(5-chloro-2,4-dimethoxyphenyl)imidazo[1,2-a]pyridin-7-yl)-3-(3-(dimethylamino)propyl)imidazolidin-2-one]	6.4	6.9	6.8	6.5	3.9	0.0124					
